Results from US5756491A, “Antiviral cobalt-organic compounds” (priority 1991, dated 1998).

Tests used:
[1] = system: human foreskin fibroblast (HFF) cell monolayers; assay: Toxicity effects controls: sham-inoculated compound-treated HFF monolayers; assay type: cell-based; as to Toxicity effects: key: +: toxic; -: no toxicity; ±: mild toxicity; T: toxicity effects interfered with CPE rating
Description: With sufficient stirring, all the compounds completely dissolved.
In the tables, the symbols have the meaning indicated: […]

[2] = system: HFF cells; assay: Cell proliferation assay; assay type: cell-based, human; settings: rapidly growing cells
Protocol: Twenty-four hours prior to assay, HFF cells are seeded in 6-well plates at a concentration of 2.5×10^4 cells per well in MEM containing 10% FBS. On the day of the assay, drugs are diluted serially in MEM containing 10% FBS at increments of 1:5 covering a range from 100 μg/ml to 0.03 μg/ml. […] The media from the wells is then aspirated and 2 ml of each drug concentration is then added to each well. The cells are then incubated in a Co2 incubator at 37° C. for 72 h. At the end of this time, the media-drug solution is removed and the cells washed. […] The cell-media mixture is then pipetted up and down vigorously to break up the cell suspension and 0.2 ml of the mixture is added to 9.8 ml of Isoton III and counted using a Coulter Counter. Each sample is counted three times with three replicate wells per sample.

[3] = system: VZV; assay: In vitro assay with VZV on HFF monolayers; assay type: cell-based; settings: for virucidal efficacy (VZV titer): Table 20, 7 days PI
Protocol: VZV was grown to a CPE level in vitro assays with VZV of 3-4+ on HFF cell monolayers. The VZV was scraped from the flask, centrifuged and the cell pellet was resuspended in 10 ml of complete medium. One hundred to 200 μl of the VZV cell associated inoculum was inoculated onto confluent HFF cell monolayers by absorption for 60 minutes at 37° C. After absorption of the virus, the inoculum was aspirated from the cell monolayers.
The VZV-infected monolayers were rehydrated with medium containing the appropriate concentrations of compounds to be tested. All monolayers were incubated at 37° C. Development of VZV cytopathology was monitored daily for 7 days by inverted light microscopy. Titers were calculated by multiple regression analysis.
Sham-inoculated, non-treated HFF cell monolayers were included among with the drug-treated monolayers as cell monolayer controls.
VZV inoculated, non-treated HFF monolayers were included as positive controls.

[4] = system: HFF cells; assay: MTT assay for cell cytotoxicity; assay type: cell-based, human; settings: stationary cells
Protocol: Twenty-four hours prior to assay, HFF cells are plated into 96 well plates at a concentration of […] cells per well. After 24 h, the media is aspirated and […] of drug is added to the first row of wells and then diluted serially 1:5 using the automated Cetus Liquid Handling System in a manner similar to that used in the CPE assay. The plates are then incubated in a CO2 incubator at 37° C. for seven days. At this time, each well receives 50 microliters of […] solution of MTT in Dulbecco's Phosphate Buffered Saline. The plates are then incubated for an additional four hours. At this time, the media is removed and replaced with 100 μl of 0.04N hydrochloric acid in isopropanol. After shaking briefly, the plates are then read on a plate reader at 550 nm.

[5] = system: HFF cells; assay: Neutral red uptake toxicity; assay type: cell-based, human; settings: stationary cells
[6] = system: RE strain HSV-1; assay: Topical efficacy in RE strain HSV-1-induced stromal keratitis in the rabbit; assay type: in vivo, NZW rabbit
Protocol: The following examples describe topical ocular evaluation of the inventive compounds during RE strain HSV-1-induced stromal keratitis in the rabbit. These evaluations included analysis of the topical efficacy of both the inventive compounds alone, or, in certain instances, in combination with trifluorothymidine (TFT). The evaluation was carried out by the combined analysis of both clinical and virological (HSV-1 recovery) parameters. The specified number of NZW rabbits (1.5-2.0 kg) were used. Animals were received at least two days prior to inoculation to allow them to accommodate to the conditions in the vivarium facility. This conditioning of the animals prior to inoculation minimizes animal variability. After the accommodation, the animals received a slit-lamp examination to exclude any animals with pre-existing anterior segment ocular defects. Animals were bi-laterally inoculated by intrastromal injection of 10^5 PFU RE strain HSV-1. The animals were then replaced individually into cages. On day number three post-inoculation (PI), the animals were evaluated by slit-lamp microscopy. Corneal stromal, iris and conjunctival disease were graded on an increasing scale of severity from 0+ to 4+. After evaluation, the animals were divided into a specified number of groups each containing an equal number of animals based on a matched corneal stromal involvement. Topical therapy was initiated immediately after animal groupings. All animals received daily slit-lamp evaluations from day 3 through 7 PI. The ocular HSV-1 induced disease severity was recorded daily. […] Differences in disease resolution and development of stromal alterations are statistically analyzed. Virus recovery during and after topical therapy was compared. The topical efficacy of Compounds 23 and 96 on stromal HSV-1 infection in the rabbit model of stromal keratitis was evaluated. All animals received daily slit lamp evaluations from day 3 through day 7 and on days 9 and 10 PI. The ocular HSV-1-induced disease severity was recorded daily. The topical efficacy of Compounds 23, 96 and 82 on stromal HSV-1 infection in the rabbit model of stromal keratitis was evaluated. All animals received daily slit lamp evaluations for day 3 through day 7 PI. The ocular HSV-1-induced disease severity was recorded daily. The topical efficacy of Compounds 23 and 96 in combination with TFT on stromal HSV-1 infection in the rabbit model of stromal keratitis was evaluated. Groups 1, 2 and 3 each have 5 animals for a total of 10 eyes per combination therapy. This allowed minimization of individual animal variability and performance of a statistical analysis on the results of the combination therapies. Groups 3, 4 and 5 have 2 animals each. These single-agent therapies were used to verify previously reported data on the efficacy of these compounds. The compounds are used at a lower frequency of delivery to match the dosing regimen of the combination-agent group. Consequently, the study also provides comparative information on Compounds 23 and 96 as a lower frequency of topical administration (4 times per day vs. 9 times per day in previous studies).

CC([O-])=CC(C)=NCCN=C(C)C=C(C)[O-].Cc1ncc[nH]1.Cc1ncc[nH]1.[Br-].[Co+3] [Compound 96]
toxicity at 1 mg/ml (comment) [1]: a lack of toxicity | toxicity effects ([1]; Experiment 3 (Table 7), 24 h PI, 0.001 mg/ml): - | toxicity effects ([1]; Experiment 3 (Table 7), 24 h PI, 0.01 mg/ml): - | toxicity effects ([1]; Experiment 3 (Table 7), 24 h PI, 0.1 mg/ml): - | toxicity effects ([1]; Experiment 3 (Table 7), 24 h PI, 1 mg/ml): - | toxicity effects ([1]; Experiment 3 (Table 7), 48 h PI, 0.001 mg/ml): - | toxicity effects ([1]; Experiment 3 (Table 7), 48 h PI, 0.01 mg/ml): - | toxicity effects ([1]; Experiment 3 (Table 7), 48 h PI, 0.1 mg/ml): - | toxicity effects ([1]; Experiment 3 (Table 7), 48 h PI, 1 mg/ml): - | toxicity effects ([1]; Experiment 4 (Table 10), 24 h, 0.001 mg/ml): - | toxicity effects ([1]; Experiment 4 (Table 10), 24 h, 0.01 mg/ml): - | toxicity effects ([1]; Experiment 4 (Table 10), 24 h, 0.5 mg/ml): - | toxicity effects ([1]; Experiment 4 (Table 10), 24 h, 1 mg/ml): - | toxicity effects ([1]; Experiment 4 (Table 10), 48 h, 0.001 mg/ml): - | toxicity effects ([1]; Experiment 4 (Table 10), 48 h, 0.01 mg/ml): - | toxicity effects ([1]; Experiment 4 (Table 10), 48 h, 0.5 mg/ml): - | toxicity effects ([1]; Experiment 5 (Table 13), 24 h, 0.00 mg/ml (so in the source)): - | toxicity effects ([1]; Experiment 5 (Table 13), 24 h, 0.01 mg/ml): - | toxicity effects ([1]; Experiment 5 (Table 13), 24 h, 0.5 mg/ml): - | toxicity effects ([1]; Experiment 5 (Table 13), 48 h, 0.00 mg/ml (so in the source)): - | toxicity effects ([1]; Experiment 5 (Table 13), 48 h, 0.01 mg/ml): - | toxicity effects ([1]; Experiment 5 (Table 13), 48 h, 0.5 mg/ml): - | toxicity effects ([1]; Experiment 5 (Table 13), 48 h, 5 mg/ml): + | toxicity effects ([1]; Experiment 6 (Table 15), 48 h, 0.001 mg/ml): - | toxicity effects ([1]; Experiment 6 (Table 15), 48 h, 0.01 mg/ml): - | toxicity effects ([1]; Experiment 6 (Table 15), 48 h, 1 mg/ml): - | toxicity to HFF monolayers (comment) ([1]; Experiment 6 comment, more pronounced at 0.5 and 0.1 mg/ml, cell rounding, detaching, granularity): toxicity observed | toxicity IC50, cell proliferation [2]: 21.0 MCG/ML | virucidal efficacy (VZV titer) ([3]; 0.001 mg/ml): 10^4 PFU/ml | virucidal efficacy (VZV titer) ([3]; 0.01 mg/ml): 10^2 PFU/ml | virucidal efficacy (VZV titer) ([3]; 0.1 mg/ml, toxicity observation questionable): T? | virucidal efficacy (VZV titer) ([3]; 2 mg/ml): 0 PFU/ml | virucidal efficacy (VZV titer) ([3]; 5 mg/ml): 0 PFU/ml | effective virucidal concentration IC50 ([3]; Table 21, VZV): 10 µg/mL | toxicity IC50, MTT toxicity [4]: > 74 MCG/ML | toxicity IC50, neutral red uptake [5]: 22.0 MCG/ML | comparison with all other therapies in reducing/preventing corneal stromal keratitis ([6]; Example 3): superior to all other therapies in reducing and/or preventing the development of corneal stromal keratitis | scarring vs TFT animals ([6]; Example 3): significantly lower than the scarring in the TFT animals | efficacy ranking during stromal HSV-1 infection ([6]; Example 3, all eyes, FIG. 1, 1 mg/ml (TFT 0.1%), 9x/day, 5 days): Compound 96>>Compound 23>TFT>Placebo | comparison with compound 23 ([6]; Example 3, all of the therapies used): superior properties in all of the therapies used in the studies as compared to compound 23 | efficacy vs other topical therapies ([6]; Example 3, days 4, 5 and 6 PI): significantly better results than the other topical therapies | efficacy vs TFT, Placebo and Compound 23 ([6]; Example 3, eyes with stromal disease <0.75 on day 3 PI): statistically better than TFT, Placebo and Compound 23 | efficacy ranking, average stromal disease scores ([6]; Example 4, FIG. 2): Compound 96>Compound 82>Compound 23>TFT=Placebo | difference between Compound 96 single-agent and Compound 96 plus TFT ([6]; Example 5, FIG. 7, <0.5 on day 3 PI): No difference | effect on development and progression of stromal disease ([6]; Example 5, FIG. 7, score <0.5 on day 3 PI, 4 times per day): highly effective and slowed the progression and development stromal disease
